Blank lines part the entries; values can stand above or below the compound they belong to.
Columns and labels:
[1] = Ratio of drug concentration in lung to plasma of Sprague-Dawley rat at 5 mg/kg, po measured for 24 hrs by LC-MS/MS analysis; type: ADME, organism-based
Cytochrome P450 2C9 = Cytochrome P450 2C9 (Homo sapiens, UniProt P11712); assay: Inhibition of CYP2C9 in human liver microsomes using diclofenac as substrate preincubated for 30 min followed by NADPH addition measured after 12 mins by LC-MS/MS analysis; type: ADME, Microsome
Cytochrome P450 2C9, sequence (P11712 whole entry): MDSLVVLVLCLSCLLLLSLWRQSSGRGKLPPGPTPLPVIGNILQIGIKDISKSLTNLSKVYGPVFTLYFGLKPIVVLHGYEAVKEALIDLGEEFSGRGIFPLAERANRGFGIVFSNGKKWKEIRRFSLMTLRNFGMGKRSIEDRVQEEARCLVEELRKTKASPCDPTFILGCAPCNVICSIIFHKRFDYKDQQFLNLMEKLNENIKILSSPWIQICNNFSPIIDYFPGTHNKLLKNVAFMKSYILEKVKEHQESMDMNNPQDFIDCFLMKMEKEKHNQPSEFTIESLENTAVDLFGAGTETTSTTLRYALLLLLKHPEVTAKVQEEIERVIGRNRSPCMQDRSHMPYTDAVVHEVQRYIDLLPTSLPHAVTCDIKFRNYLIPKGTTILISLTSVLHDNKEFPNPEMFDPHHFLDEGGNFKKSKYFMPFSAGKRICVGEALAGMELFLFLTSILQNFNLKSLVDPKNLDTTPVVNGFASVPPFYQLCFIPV

Cytochrome P450 3A4 = Cytochrome P450 3A4 (Homo sapiens, UniProt P08684); assay: Inhibition of CYP3A4 in human liver microsomes using midazolam as substrate preincubated for 30 min followed by NADPH addition measured after 12 mins by LC-MS/MS analysis; type: ADME, Microsome
Cytochrome P450 3A4, sequence (P08684 whole entry): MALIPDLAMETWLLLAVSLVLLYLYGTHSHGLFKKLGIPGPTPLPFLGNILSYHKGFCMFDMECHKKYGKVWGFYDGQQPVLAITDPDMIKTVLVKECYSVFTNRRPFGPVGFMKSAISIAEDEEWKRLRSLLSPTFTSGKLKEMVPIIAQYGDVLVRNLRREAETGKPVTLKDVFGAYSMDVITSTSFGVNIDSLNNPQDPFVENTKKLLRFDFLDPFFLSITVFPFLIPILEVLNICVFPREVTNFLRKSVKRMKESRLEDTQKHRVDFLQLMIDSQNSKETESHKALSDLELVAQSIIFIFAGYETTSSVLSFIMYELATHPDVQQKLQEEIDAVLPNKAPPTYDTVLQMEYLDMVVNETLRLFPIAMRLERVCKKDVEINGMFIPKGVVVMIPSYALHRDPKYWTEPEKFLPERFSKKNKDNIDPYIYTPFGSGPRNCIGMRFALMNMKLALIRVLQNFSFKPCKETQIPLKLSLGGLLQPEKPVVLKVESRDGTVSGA

[2] = Ratio of drug concentration in heart to plasma of Sprague-Dawley rat at 10 mg/kg, po measured for 24 hrs by LC-MS/MS analysis; type: ADME, organism-based; conditions: heart and plasma
[3] = Free AUC (0 to 24 hrs) in Beagle dog at 45 mg/kg, po qd measured after 91 days; type: ADME, organism-based, Canis lupus familiaris; conditions: in vivo, 2184 h, time 91 day
[4] = AUC (0 to 24 hrs) in Sprague-Dawley rat at 10 mg/kg, po measured for 24 hrs by LC-MS/MS analysis; type: ADME, organism-based; conditions: in vivo
[5] = Toxicity in Beagle dog assessed as sporadic splayed limbs at 5 to 15 mg/kg, po qd measured after 38 days; type: organism-based, Canis lupus familiaris; conditions: in vivo, 912 h, dose 5-15 mg/kg, time 38 day
Hepatitis B virus [6] = assay: In vivo destabilization of HBV RNA in immuno-competent mouse model of chronic HBV assessed as log10 reduction in HBV DNA; type: functional
[7] = Total AUC (0 to 24 hrs) in Beagle dog at 15 mg/kg, po qd measured after 91 days; type: ADME, organism-based, Canis lupus familiaris; conditions: in vivo, time 91 day
CYP2D6 = CYP2D6 (Homo sapiens, UniProt P10635); assay: Inhibition of CYP2D6 in human liver microsomes using dextromethorphan as substrate preincubated for 30 min followed by NADPH addition measured after 12 mins by LC-MS/MS analysis; type: ADME, Microsome; conditions: human, liver microsomes, probe dextromethorphan
CYP2D6, sequence (P10635 whole entry): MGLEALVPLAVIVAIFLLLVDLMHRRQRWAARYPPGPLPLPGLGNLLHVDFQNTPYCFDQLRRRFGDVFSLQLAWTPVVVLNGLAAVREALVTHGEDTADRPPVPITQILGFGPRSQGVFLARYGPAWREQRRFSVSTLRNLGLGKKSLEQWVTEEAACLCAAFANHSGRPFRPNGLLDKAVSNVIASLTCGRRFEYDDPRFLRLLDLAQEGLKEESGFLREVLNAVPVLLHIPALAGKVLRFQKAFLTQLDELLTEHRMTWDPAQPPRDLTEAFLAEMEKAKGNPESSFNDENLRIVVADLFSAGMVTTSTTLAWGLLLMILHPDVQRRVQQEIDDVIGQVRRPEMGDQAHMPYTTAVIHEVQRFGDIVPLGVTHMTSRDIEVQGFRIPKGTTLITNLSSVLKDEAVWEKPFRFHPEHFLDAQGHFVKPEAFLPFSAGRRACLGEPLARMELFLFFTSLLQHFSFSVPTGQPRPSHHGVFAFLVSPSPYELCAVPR

[8] = Drug concentration in Sprague-Dawley rat heart at 10 mg/kg, po measured for 24 hrs by LC-MS/MS analysis; type: ADME, organism-based; conditions: read-out: Ct
Hepatitis B virus [9] = assay: Antiviral activity against HBV infected in immuno-competent mouse model assessed as log10 reduction serum HBsAg; type: functional
[10] = Toxicity in Beagle dog assessed as animal death at 60 mg/kg, po qd measured after 45 days; type: organism-based, Canis lupus familiaris; conditions: in vivo, 1080 h, time 45 day
[11] = Free Cmax in Beagle dog at 45 mg/kg, po qd measured after 91 days; type: ADME, organism-based, Canis lupus familiaris; conditions: in vivo, 2184 h, time 91 day
[12] = Total Cmax in Beagle dog at 5 mg/kg, po qd measured after 91 days; type: ADME, organism-based, Canis lupus familiaris; conditions: in vivo, time 91 day
[13] = Total Cmax in Beagle dog at 45 mg/kg, po qd measured after 91 days; type: ADME, organism-based, Canis lupus familiaris; conditions: in vivo, time 91 day
Hepatitis B virus [14] = assay: Antiviral activity against HBV genotype D in immuno-competent C57BL/6 mouse model of chronic HBV assessed as log10 reduction in HBsAg production at 10 mg/kg, po qd for 7 days measured 24 hrs post-last dose by EIA relative to control; type: functional; conditions: time 8 day
[15] = Oral bioavailability in CD-1 mouse at 10 mg/kg measured for 24 hrs by LC-MS/MS analysis; type: ADME, organism-based; conditions: in vivo
[16] = Oral bioavailability in Sprague-Dawley rat at 10 mg/kg measured for 24 hrs by LC-MS/MS analysis; type: ADME, organism-based; conditions: in vivo
[17] = Drug concentration in Sprague-Dawley rat plasma at 10 mg/kg, po measured for 24 hrs by LC-MS/MS analysis; type: ADME, organism-based; conditions: read-out: Ct
[18] = Selectivity ratio of drug concentration in liver in Sprague-Dawley rat at 10 mg/kg, po measured for 24 hrs to EC90 for antiviral activity against HBV infected in human HepG2.2.15 cells assessed as reduction in HBsAg level; type: ADME, organism-based; conditions: in vivo
[19] = Free Cmax in Beagle dog at 60 mg/kg, po qd measured after 91 days; type: ADME, organism-based, Canis lupus familiaris; conditions: in vivo, 2184 h, time 91 day
[20] = Total AUC (0 to 24 hrs) in Beagle dog at 5 mg/kg, po qd measured after 91 days; type: ADME, organism-based, Canis lupus familiaris; conditions: in vivo, time 91 day
[21] = Ratio of total drug concentration in liver to plasma in Sprague-Dawley rat at 10 mg/kg, po measured for 24 hrs by LC-MS/MS analysis; type: ADME, organism-based; conditions: liver and plasma
CYP2C19 = CYP2C19 (Homo sapiens, UniProt P33261); assay: Inhibition of CYP2C19 in human liver microsomes using S-mephenytoin as substrate preincubated for 30 min followed by NADPH addition measured after 12 mins by LC-MS/MS analysis; type: ADME, Microsome; conditions: human, liver microsomes, probe S-mephenytoin
CYP2C19, sequence (P33261 whole entry): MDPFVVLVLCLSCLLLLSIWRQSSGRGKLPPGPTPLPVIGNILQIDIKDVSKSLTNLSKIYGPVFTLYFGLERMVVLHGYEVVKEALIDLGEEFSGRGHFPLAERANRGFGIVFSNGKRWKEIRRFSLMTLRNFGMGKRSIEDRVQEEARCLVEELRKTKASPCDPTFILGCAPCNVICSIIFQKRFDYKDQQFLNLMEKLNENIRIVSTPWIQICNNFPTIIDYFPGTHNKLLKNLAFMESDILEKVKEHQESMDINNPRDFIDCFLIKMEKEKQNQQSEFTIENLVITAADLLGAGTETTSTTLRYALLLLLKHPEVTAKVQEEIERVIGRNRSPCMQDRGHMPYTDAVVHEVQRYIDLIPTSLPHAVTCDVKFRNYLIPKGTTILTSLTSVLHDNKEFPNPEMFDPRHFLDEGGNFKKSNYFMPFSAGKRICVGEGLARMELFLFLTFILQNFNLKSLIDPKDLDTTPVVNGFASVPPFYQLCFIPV

[22] = Free Cmax in Beagle dog at 45 mg/kg, po qd measured after 60 days; type: ADME, organism-based, Canis lupus familiaris; conditions: in vivo, 1440 h, time 60 day
[23] = Toxicity in female Beagle dog assessed as decrease in total protein level at 15 to 45 mg/kg, po qd measured for 60 days; type: organism-based, Canis lupus familiaris; set-up: scale not given: the % may be the effect or the level left; conditions: in vivo, 1440 h, dose 15-45 mg/kg, time 60 day
[24] = Toxicity in Beagle dog assessed as uncoordinated movements at 15 to 45 mg/kg, po qd measured after 60 days; type: organism-based, Canis lupus familiaris; conditions: in vivo, 1440 h, dose 15-45 mg/kg, time 60 day
[25] = Total AUC (0 to 24 hrs) in Beagle dog at 15 mg/kg, po qd measured after 60 days; type: ADME, organism-based, Canis lupus familiaris; conditions: in vivo, time 60 day
[26] = biological target: Voltage-gated inwardly rectifying potassium channel KCNH2 (Homo sapiens, UniProt Q12809); assay: Inhibition of hERG; type: toxicity
Voltage-gated inwardly rectifying potassium channel KCNH2, sequence (Q12809 whole entry): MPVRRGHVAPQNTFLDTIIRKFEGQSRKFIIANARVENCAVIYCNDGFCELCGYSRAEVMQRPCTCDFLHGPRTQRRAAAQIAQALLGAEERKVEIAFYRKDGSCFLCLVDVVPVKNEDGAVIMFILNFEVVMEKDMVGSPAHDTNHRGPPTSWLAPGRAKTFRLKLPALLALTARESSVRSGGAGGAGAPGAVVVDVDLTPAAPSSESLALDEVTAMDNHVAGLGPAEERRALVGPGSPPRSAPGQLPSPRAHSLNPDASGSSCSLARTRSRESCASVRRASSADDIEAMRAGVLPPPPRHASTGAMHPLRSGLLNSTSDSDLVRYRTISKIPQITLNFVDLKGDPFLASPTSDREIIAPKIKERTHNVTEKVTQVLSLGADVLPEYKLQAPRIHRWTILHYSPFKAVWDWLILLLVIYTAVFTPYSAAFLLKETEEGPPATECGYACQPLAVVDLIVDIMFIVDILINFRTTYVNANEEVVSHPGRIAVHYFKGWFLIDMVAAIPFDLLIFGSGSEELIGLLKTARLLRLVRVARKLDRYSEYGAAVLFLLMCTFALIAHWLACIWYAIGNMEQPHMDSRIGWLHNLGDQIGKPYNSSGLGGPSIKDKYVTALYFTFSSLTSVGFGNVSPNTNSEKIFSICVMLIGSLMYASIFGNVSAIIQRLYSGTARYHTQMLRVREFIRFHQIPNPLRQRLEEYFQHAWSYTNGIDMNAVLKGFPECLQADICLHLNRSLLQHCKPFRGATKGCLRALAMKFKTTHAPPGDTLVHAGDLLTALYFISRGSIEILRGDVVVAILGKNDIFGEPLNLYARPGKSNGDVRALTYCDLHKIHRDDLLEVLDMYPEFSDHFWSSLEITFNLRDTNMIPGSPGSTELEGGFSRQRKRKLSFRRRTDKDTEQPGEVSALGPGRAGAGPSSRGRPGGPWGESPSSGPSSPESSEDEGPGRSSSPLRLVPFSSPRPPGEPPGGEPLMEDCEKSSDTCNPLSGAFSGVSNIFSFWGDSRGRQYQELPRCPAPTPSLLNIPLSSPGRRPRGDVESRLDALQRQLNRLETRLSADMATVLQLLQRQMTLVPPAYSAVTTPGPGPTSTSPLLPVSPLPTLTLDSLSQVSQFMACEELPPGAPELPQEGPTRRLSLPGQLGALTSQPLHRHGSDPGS

[27] = Free AUC (0 to 24 hrs) in Beagle dog at 15 mg/kg, po qd measured after 60 days; type: ADME, organism-based, Canis lupus familiaris; conditions: in vivo, 1440 h, time 60 day
[28] = Total AUC (0 to 24 hrs) in Beagle dog at 45 mg/kg, po qd measured after 60 days; type: ADME, organism-based, Canis lupus familiaris; conditions: in vivo, time 60 day
[29] = Free Cmax in Beagle dog at 15 mg/kg, po qd measured after 60 days; type: ADME, organism-based, Canis lupus familiaris; conditions: in vivo, 1440 h, time 60 day
[30] = Toxicity in female Beagle dog assessed as fold decrease in cholesterol level at 15 to 45 mg/kg, po qd measured for 60 days; type: organism-based, Canis lupus familiaris; set-up: scale not given: the % may be the effect or the level left; conditions: in vivo, 1440 h, dose 15-45 mg/kg, time 60 day
[31] = Toxicity in female Beagle dog assessed as change in body weight at 15 to 45 mg/kg, po qd measured for 60 days; type: organism-based, Canis lupus familiaris; conditions: in vivo, 1440 h, dose 15-45 mg/kg, time 60 day
Hepatitis B virus [32] = assay: Antiviral activity against HBV infected in human primary hepatocytes assessed as reduction in HBsAg production pre-infected cells with virus followed by inoculum removal and subsequent addition of compounds with replenishment on days 4,7,9,11 and 14 post-infection measured after 16 days; type: functional, organism-based; conditions: Hepatocyte, 384 h

Kp at 24 h ([1]; Sprague-Dawley, lung and plasma): 0.7 | IC50 (Cytochrome P450 2C9): 21 µM | IC50 (Cytochrome P450 3A4): > 25 µM
SMILES: CC(C)(C)[C@@H]1Cc2c(nc3c(C(F)(F)F)cc(C4CC4)cn23)-c2[nH]c(=O)c(C(=O)O)cc21

SMILES: COCCCOc1cc2c(nc1OC)-c1cc(=O)c(C(=O)O)cn1[C@H](C(C)C)C2
Kp at 24 h [2]: 1.9 | fAUC [3]: 35300 ng·h/mL | AUC(0-t) at 24 h [4]: 13900 ng·h/mL | Activity [5]: Toxic | log(activity) (Hepatitis B virus [6]): <=0.94 | AUC at 2184 h [7]: 30600 ng·h/mL | IC50 at 12 min (CYP2D6): > 25 µM | concentration at 24 h [8]: 53 ng/g | log(activity) (Hepatitis B virus [9]): <=0.94 | Activity [10]: Toxic | fCmax [11]: 10300 ng/mL | Cmax [12]: 4680 ng/mL | Cmax [13]: 27800 ng/mL | log(activity) (Hepatitis B virus [14]): 0.98 | bioavailability [15]: 112% | bioavailability [16]: 80% | concentration at 24 h [17]: 28.2 ng/g | Ratio [18]: 5 | fCmax [19]: 6940 ng/mL | AUC at 2184 h [20]: 10500 ng·h/mL | Kp at 24 h [21]: 3 | IC50 at 12 min (CYP2C19): > 25 µM

fCmax [22]: 834 ng/mL | Ratio ([1]; in vivo, po, 5 mg/kg, 24 h, BLD = below limit of detection): Bld | IC50 (Cytochrome P450 2C9): 22 µM | IC50 (Cytochrome P450 3A4): > 25 µM | AUC at 1440 h [25]: 3900 ng·h/mL | fAUC [27]: 1830 ng·h/mL | AUC at 1440 h [28]: 65900 ng·h/mL | fCmax [29]: 653 ng/mL
SMILES: COc1cc(OC(F)F)c2nc3c(n2c1)C[C@@H](C(C)(C)C)c1cc(C(=O)O)c(=O)[nH]c1-3
Activity [23]: < 15% | Activity [24]: Non-Toxic | IC50 [26]: > 30 µM | Activity [30]: < 30% | Activity [31]: Non-Toxic | EC50 (Hepatitis B virus [32]): 0.0085 µM

— ChEMBL document CHEMBL6127124, “Structure-Activity Relationships and Discovery of (S)-5-(tert-Butyl)-11-(difluoromethoxy)-9-methoxy-2-oxo-1,2,5,6-tetrahydropyrido[2',1':2,3]imidazo[4,5-h]quinoline-3-carboxylic Acid (AB-161), a Novel Orally Available and Liver-Centric HBV RNA Destabilizer” (J Med Chem, 2024)
